{"source": "patent US20030065030A1", "about": "“Autonomic controlling agents and health drinks and foods” (priority 2001, published 2003)", "key": {"[1]": {"system": "autonomic nervous system in humans", "experiment": "autonomic nerve activity in humans by ECG R-R interval power spectral analysis", "type": "in vivo, human", "conditions": "for mean promotion ratio of the overall autonomic nerve activity / mean promotion ratio of the parasympathetic nerve activity: responding subjects", "method": "The resting ECG of the subjects was measured for 5 minutes, and ECG was measured for 5 minutes at 30 minutes and 60 minutes after drinking the test sample, respectively. In order to avoid influences by changes in respiration, ECG was measured when the subjects were forced to respire at 15 respirations per minute. The intervals between R-waves (R-R intervals) of the ECG were determined, and were subjected to a power spectral analysis according to the program prepared by Moritani et al. (J. Sport Med. Sci. 7:31-39, 1993). For cycle components, in conformity to the classification criteria of the Cardiology society in Europe and the USA (Circulation 93:1043-1065, 1996), heart rate variation was divided into the low frequency (0.03-0.15 Hz) and the high frequency (0.15-0.4 Hz).\nCarnosine was weighed out on a chartula at 0.04 mg, 0.2 mg, 1 mg, 5 mg, and 25 mg/capita. For 0.2 mg, one mg of a 1:4 mixture of carnosine and starch powder (⅕ dilution) was weighed out. For 0.04 mg, one mg of a 1:4 mixture of carnosine and starch powder that further mixed with the starch powder at 1:4 ( 1/25 dilution) was weighed out. Carnosine was taken by licking the one weighed out on chartula.\nThere were 8 subjects, 21-51 years old (33.0 +/− 11.95 years old) and weighing 54-73.5 kg (64.3 +/− 7.01 kg), and among them, the experiments of the 0.04 mg and the 0.2 mg were performed on six subjects, the experiments of the 1 mg and the 5 mg were performed on 8 subjects, and the experiment of the 25 mg was performed on 5 subjects."}, "[2]": {"target": "T1, carnosine-degrading enzyme (Homo sapiens, UniProt Q96KN2)", "T1 construct": "host or cells: human blood", "T1 sequence (Q96KN2 27-507 limits assumed)": "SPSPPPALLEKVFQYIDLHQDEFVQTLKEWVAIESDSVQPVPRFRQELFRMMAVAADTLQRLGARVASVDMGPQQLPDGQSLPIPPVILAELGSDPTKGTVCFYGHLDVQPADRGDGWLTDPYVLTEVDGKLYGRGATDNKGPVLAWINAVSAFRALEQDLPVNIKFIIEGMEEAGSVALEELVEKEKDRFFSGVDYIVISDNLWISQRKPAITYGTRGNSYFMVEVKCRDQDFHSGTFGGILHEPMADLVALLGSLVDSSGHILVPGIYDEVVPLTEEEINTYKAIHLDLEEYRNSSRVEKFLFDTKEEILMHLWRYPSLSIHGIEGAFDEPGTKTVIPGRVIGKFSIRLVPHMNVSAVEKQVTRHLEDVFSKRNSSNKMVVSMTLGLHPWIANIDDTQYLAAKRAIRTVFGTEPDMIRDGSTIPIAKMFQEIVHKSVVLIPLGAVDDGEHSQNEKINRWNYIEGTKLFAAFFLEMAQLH", "conditions": "cited from earlier work"}, "[3]": {"system": "sympathetic nerve renal branches", "experiment": "efferent neural activity of the sympathetic nerve renal branches after intravenous carnosine", "type": "in vivo, rat", "conditions": "1,000 ng intravenous", "method": "(§1) According to the method of Niijima (Neurobiology 3:299-307, 1995), the effect of carnosine on the autonomic nerve activity was investigated. Wistar male rats, weighing about 300 g, that had been kept in an environment of room temperature (24° C.) and free access to the feed were fasted (with free access to water) 12 hours before the start of the experiment. Rats were subjected to abdominal section under urethane anesthesia (1 g/kg body weight, intraperitoneal administration), neurofilaments were isolated from central cut ends of a sympathetic nerve branch or a vagal nerve branch, and the efferent neural activity was recorded via an AC amplifier. The neural activity was observed using an oscilloscope and was recorded into magnetic tape. At the same time, the time course of the neural activity was recorded with a pen-type recorder via a rate meter with a reset time set at 5 seconds.\n(§2) Carnosine (100 ng or 1,000 ng dissolved in 0.1 ml physiological saline) was intravenously administered. As the control, physiological saline (0.1 ml) was alone administered intravenously.\n(§3) The effect of carnosine administration was calculated as the neural activity count (%) after carnosine administration relative to neural activity count (mean value of 10 activity counts during 5 minutes) before administration set at 100. Five rats were used for each experiment. Data were tested with ANOVA (p<0.05) and were expressed as mean +/− standard error."}, "[4]": {"system": "DOCA-salt hypertensive rats", "experiment": "anti-hypertensive effect in DOCA-salt hypertensive rats (systolic blood pressure)", "type": "in vivo, rat", "method": "Sprague-Dawley male rats (6-week old) were used. The animals were anesthetized by the intraperitoneal administration of pentobarbital at 40 mg/kg body weight, and the right flank was dissected to remove the right kidney. After the surgical operation and a one week recovery period, the animals were divided into the pseudosurgery (sham) group and the deoxycorticosterone acetate (DOCA) salt group. Each group was further divided into the normal diet group, the 0.001% carnosine-containing diet group, and the 0.0001% carnosine-containing group.\nThe rats of the DOCA-salt group received the subcutaneous injection of DOCA suspended in corn oil at 15 mg/kg body weight twice per week, and tap water supplemented with 1% sodium chloride was given as the drinking water. The sham group received neither DOCA nor sodium chloride. The systolic blood pressure was monitored once per week for five weeks using the tail cuff and the pneumatic pulse transducer (BP-98A, Softron). The experiment employed 9 rats in the DOCA group and 6 rats in the sham group. Data were tested with ANOVA (p<0.05) and were expressed as mean +/− standard error."}, "[5]": {"system": "sympathetic nerve hepatic branches", "experiment": "efferent neural activity of the sympathetic nerve hepatic branches after intravenous carnosine", "type": "in vivo, rat", "conditions": "100 ng intravenous", "method": "as §1, §2, §3"}, "[6]": {"conditions": "cited from earlier work"}, "[7]": {"system": "vagal nerve celiac branches", "experiment": "efferent neural activity of the vagal nerve celiac branches after intravenous carnosine", "type": "in vivo, rat", "conditions": "100 ng intravenous", "method": "as §1, §2, §3\nIn order to study the effect on the neural activity of the vagal nerve, the efferent neural activity of the vagal nerve celiac branches was recorded."}, "[8]": {"conditions": "0.04 mg oral ingestion, the one responding subject"}, "[9]": {"conditions": "30 minutes after administration"}, "[10]": {"conditions": "60 minutes after administration"}, "[11]": {"conditions": "90 minutes after administration"}}, "note": "Read-outs that look alike come from different tables or passages of the source.", "data": [{"smiles": "NCCC(=O)N[C@@H](Cc1cnc[nH]1)C(=O)O", "note": "[carnosine, β-alanyl-L-histidine]", "values": [{"measurement": "ratio of those who exhibited promotion (more than 200% of the previous value of the parasympathetic nerve activity)", "setting": "[1]; 0.04 mg oral ingestion", "result": 16.7, "unit": "%"}, {"measurement": "promotion ratio of the overall autonomic nerve activity", "setting": "[1]; [8]", "result": 195, "unit": "%"}, {"measurement": "promotion ratio of the parasympathetic nerve activity", "setting": "[1]; [8]", "result": 249, "unit": "%"}, {"measurement": "ratio of those who exhibited promotion (more than 200% of the previous value of the parasympathetic nerve activity)", "setting": "[1]; 0.2 mg oral ingestion", "result": 66.7, "unit": "%"}, {"measurement": "mean promotion ratio of the overall autonomic nerve activity", "setting": "[1]; 0.2 mg oral ingestion", "result": 329, "unit": "%"}, {"measurement": "mean promotion ratio of the parasympathetic nerve activity", "setting": "[1]; 0.2 mg oral ingestion", "result": 436, "unit": "%"}, {"measurement": "ratio of those who exhibited promotion (more than 200% of the previous value of the parasympathetic nerve activity)", "setting": "[1]; 1 mg oral ingestion", "result": 37.5, "unit": "%"}, {"measurement": "mean promotion ratio of the overall autonomic nerve activity", "setting": "[1]; 1 mg oral ingestion", "result": 190, "unit": "%"}, {"measurement": "mean promotion ratio of the parasympathetic nerve activity", "setting": "[1]; 1 mg oral ingestion", "result": 259, "unit": "%"}, {"measurement": "ratio of those who exhibited promotion (more than 200% of the previous value of the parasympathetic nerve activity)", "setting": "[1]; 5 mg oral ingestion", "result": 25.0, "unit": "%"}, {"measurement": "mean promotion ratio of the overall autonomic nerve activity", "setting": "[1]; 5 mg oral ingestion", "result": 410, "unit": "%"}, {"measurement": "mean promotion ratio of the parasympathetic nerve activity", "setting": "[1]; 5 mg oral ingestion", "result": 472, "unit": "%"}, {"measurement": "ratio of those who exhibited promotion (more than 200% of the previous value of the parasympathetic nerve activity)", "setting": "[1]; 25 mg oral ingestion", "result": 0, "unit": "%"}, {"measurement": "activity of a carnosine-degrading enzyme in the blood", "setting": "[2]", "result": "2 to 7", "unit": "µmol/h/mL"}, {"measurement": "suppression rate of efferent neural activity of the sympathetic nerve renal branches", "setting": "[3]; [9]", "result": 29.7, "unit": "%"}, {"measurement": "suppression rate of efferent neural activity of the sympathetic nerve renal branches", "setting": "[3]; [10]", "result": 32.8, "unit": "%"}, {"measurement": "suppression rate of efferent neural activity of the sympathetic nerve renal branches", "setting": "[3]; [11]", "result": 28.0, "unit": "%"}, {"measurement": "suppression rate of increase in systolic blood pressure", "setting": "[4]; 0.0001% carnosine-containing diet, week five", "result": 17.8, "unit": "%"}, {"measurement": "suppression rate of increase in systolic blood pressure", "setting": "[4]; 0.0001% carnosine-containing diet, week four", "result": 22.1, "unit": "%"}, {"measurement": "suppression rate of increase in systolic blood pressure", "setting": "[4]; 0.0001% carnosine-containing diet, week one", "result": 9.6, "unit": "%"}, {"measurement": "suppression rate of increase in systolic blood pressure", "setting": "[4]; 0.0001% carnosine-containing diet, week three", "result": 15.0, "unit": "%"}, {"measurement": "suppression rate of increase in systolic blood pressure", "setting": "[4]; 0.0001% carnosine-containing diet, week two", "result": 10.2, "unit": "%"}, {"measurement": "suppression rate of increase in systolic blood pressure", "setting": "[4]; 0.001% carnosine-containing diet, week five", "result": 25.5, "unit": "%"}, {"measurement": "suppression rate of increase in systolic blood pressure", "setting": "[4]; 0.001% carnosine-containing diet, week four", "result": 21.5, "unit": "%"}, {"measurement": "suppression rate of increase in systolic blood pressure", "setting": "[4]; 0.001% carnosine-containing diet, week one", "result": 6.2, "unit": "%"}, {"measurement": "suppression rate of increase in systolic blood pressure", "setting": "[4]; 0.001% carnosine-containing diet, week three", "result": 19.6, "unit": "%"}, {"measurement": "suppression rate of increase in systolic blood pressure", "setting": "[4]; 0.001% carnosine-containing diet, week two", "result": 12.4, "unit": "%"}, {"measurement": "suppression rate of efferent neural activity of the sympathetic nerve hepatic branches", "setting": "[5]; [9]", "result": 20.1, "unit": "%"}, {"measurement": "suppression rate of efferent neural activity of the sympathetic nerve hepatic branches", "setting": "[5]; [10]", "result": 25.9, "unit": "%"}, {"measurement": "suppression rate of efferent neural activity of the sympathetic nerve hepatic branches", "setting": "[5]; [11]", "result": 32.0, "unit": "%"}, {"measurement": "absorptivity relative to carnosine alone", "setting": "[6]; administered to the jejunum of mice in combination with L-alanine", "result": "more than two-fold higher"}, {"measurement": "absorptivity relative to carnosine alone", "setting": "[6]; administered to the jejunum of mice with β-alanine", "result": "more than tripled"}, {"measurement": "oral absorptivity", "setting": "[6]; mice", "result": "30-70%"}, {"measurement": "promotion rate of efferent neural activity of the vagal nerve celiac branches", "setting": "[7]; [9]", "result": 15.4, "unit": "%"}, {"measurement": "promotion rate of efferent neural activity of the vagal nerve celiac branches", "setting": "[7]; [10]", "result": 28.6, "unit": "%"}, {"measurement": "promotion rate of efferent neural activity of the vagal nerve celiac branches", "setting": "[7]; [11]", "result": 48.7, "unit": "%"}]}]}
